Data: PMC8319832, “Fine-Tuning of Alkaline Residues on the Hydrophilic Face Provides a Non-toxic Cationic α-Helical Antimicrobial Peptide Against Antibiotic-Resistant ESKAPE Pathogens” (Frontiers in Microbiology, 2021)

Columns and labels:
Experiment in all cases: Drug sensitivity, Kirby-Bauer test
Design in all cases: key: 'S' represents susceptibility; 'I' represents intermediate efficacy; 'R' represents resistance
[1] = system: P. aeruginosa 9014; type: cell-based, Pseudomonas aeruginosa; conditions: clinical isolate, CRE, MDR
Description: (§1) The bacteria used in this study included the standard strains S. aureus ATCC29213 and ATCC25923, E. faecalis ATCC29212, E. coli ATCC25922 and ATCC35218, A. baumannii ATCC19606, K. pneumoniae ATCC700603 and P. aeruginosa ATCC27853, these strains were purchased from the China Center of Type Culture Collection (CCTCC). The antimicrobial activities of the peptides were also determined against clinically isolated strains S. aureus 4188, 9124, 1176, S. epidermidis 9092, 6943, 888, E. faecalis 901, E. faecium 898, E. coli 2678, 2687, K. pneumoniae 9126, P. aeruginosa 9014, 9042, and A. baumannii 906, 13012, 13079, 9068, these strains were acquired from Taihe Hospital, Hubei University of Medicine. The drug sensitivities of the clinical isolates to the antibiotics were determined by the Kirby-Bauer test ([Chinnambedu et al., 2020]).

[2] = system: P. aeruginosa 9042; type: cell-based, Pseudomonas aeruginosa; conditions: clinical isolate
Description: as §1

[3] = system: K. pneumoniae 9126; type: cell-based, Klebsiella pneumoniae; conditions: clinical isolate, CRE
Description: as §1

[4] = system: A. baumannii 13012; type: cell-based, Acinetobacter baumannii; conditions: clinical isolate, CRE, MDR
Description: as §1

[5] = system: A. baumannii 9068; type: cell-based, Acinetobacter baumannii; conditions: clinical isolate, CRE, MDR
Description: as §1

[6] = system: A. baumannii 906; type: cell-based, Acinetobacter baumannii; conditions: clinical isolate, CRE, MDR
Description: as §1

[7] = system: A. baumannii 13079; type: cell-based, Acinetobacter baumannii; conditions: clinical isolate, CRE, MDR
Description: as §1

[8] = system: E. coli 2687; type: cell-based, Escherichia coli; conditions: clinical isolate, ESBL
Description: as §1

[9] = system: E. coli 2678; type: cell-based, Escherichia coli; conditions: clinical isolate, ESBL
Description: as §1

[10] = system: S. epidermidis 6943; type: cell-based; conditions: clinical isolate, MRSE
Description: as §1

[11] = system: S. epidermidis 9092; type: cell-based; conditions: clinical isolate, MRSE
Description: as §1

[12] = system: S. epidermidis 888; type: cell-based; conditions: clinical isolate
Description: as §1

[13] = system: S. aureus 4188; type: cell-based, Staphylococcus aureus; conditions: clinical isolate
Description: as §1

[14] = system: S. aureus 1176; type: cell-based, Staphylococcus aureus; conditions: clinical isolate
Description: as §1

[15] = system: S. aureus 9124; type: cell-based, Staphylococcus aureus; conditions: clinical isolate, MRSA
Description: as §1

[16] = system: E. faecium 898; type: cell-based, Enterococcus faecium; conditions: clinical isolate
Description: as §1

Molecule	Drug sensitivity of the isolate to the antibiotic [1]	Drug sensitivity of the isolate to the antibiotic [2]	Drug sensitivity of the isolate to the antibiotic [3]	Drug sensitivity of the isolate to the antibiotic [4]	Drug sensitivity of the isolate to the antibiotic [5]	Drug sensitivity of the isolate to the antibiotic [6]	Drug sensitivity of the isolate to the antibiotic [7]	Drug sensitivity of the isolate to the antibiotic [8]	Drug sensitivity of the isolate to the antibiotic [9]	Drug sensitivity of the isolate to the antibiotic [10]	Drug sensitivity of the isolate to the antibiotic [11]	Drug sensitivity of the isolate to the antibiotic [12]	Drug sensitivity of the isolate to the antibiotic [13]	Drug sensitivity of the isolate to the antibiotic [14]	Drug sensitivity of the isolate to the antibiotic [15]	Drug sensitivity of the isolate to the antibiotic [16]
NCC[C@H](O)C(=O)N[C@@H]1C[C@H](N)[C@@H](O[C@H]2O[C@H](CN)[C@@H](O)[C@H](O)[C@H]2O)[C@H](O)[C@H]1O[C@H]1O[C@H](CO)[C@@H](O)[C@H](N)[C@H]1O [Amikacin]	S	S	S	R	R	R	R	S	S	–	–	–	–	–	–	–
CC1(C)S[C@@H]2[C@H](NC(=O)[C@H](N)c3ccccc3)C(=O)N2[C@H]1C(=O)O [Ampicillin]	R	R	R	–	–	–	–	R	R	–	–	–	–	–	–	–
CO[C@@]1(NC(=O)Cc2cccs2)C(=O)N2C(C(=O)O)=C(COC(N)=O)CS[C@@H]21 [Cefoxitin]	–	–	–	–	–	–	–	–	–	R	R	I	R	R	R	–
CC(C)(O/N=C(\C(=O)N[C@@H]1C(=O)N2C(C(=O)[O-])=C(C[n+]3ccccc3)CS[C@H]12)c1csc(N)n1)C(=O)O [Ceftazidime]	R	S	R	R	R	R	R	R	S	–	–	–	–	–	–	–
C[C@@H](O)[C@H]1C(=O)N2C(C(=O)O)=C(SCCN=CN)C[C@H]12 [Imipenem]	R	R	R	R	R	R	R	S	S	–	–	–	–	–	–	–
C[C@H]1COc2c(N3CCN(C)CC3)c(F)cc3c(=O)c(C(=O)O)cn1c23 [Levofloxacin]	R	R	S	R	R	R	R	R	R	I	R	R	S	S	S	R
C[C@@H](O)[C@H]1C(=O)N2C(C(=O)O)=C(S[C@@H]3CN[C@H](C(=O)N(C)C)C3)[C@H](C)[C@H]12 [Meropenem]	I	R	S	R	R	R	R	S	S	–	–	–	–	–	–	–
Cc1onc(-c2ccccc2)c1C(=O)N[C@@H]1C(=O)N2[C@@H]1SC(C)(C)[C@@H]2C(=O)O [Oxazocilline]	–	–	–	–	–	–	–	–	–	R	R	S	S	S	R	–
CN(C)[C@@H]1C(O)=C(C(N)=O)C(=O)[C@@]2(O)C(O)=C3C(=O)c4c(O)cccc4[C@@](C)(O)[C@H]3C[C@@H]12 [Tetracycline]	–	–	–	–	–	–	–	–	–	S	R	R	S	S	R	R
Piperacillin/tazobactam	R	S	S	R	R	R	R	S	S	–	–	–	–	–	–	–
Ticarcillin/clavulanic acid	R	R	S	R	R	R	R	–	S	–	–	–	–	–	–	–
